{"source": "patent US20240317748A1", "about": "“CARBONYL SUBSTITUTED DIAZASPIRO COMPOUNDS AND ITS USE” (BIONOVA PHARMACEUTICALS (SHANGHAI) LIMITED, priority 2021, published 2024)", "key": {"MV-4-11 cells": {"test_system": "MV-4-11 cells", "test": "Cell proliferation assay (CellTiter-Glo), MV-4-11", "format": "cell-based, human", "details": "MV-4-11 (MLL-AF4), 4 days incubation; read-out: Cell antiproliferation assay MV-4-11 IC50", "procedure,_shortened": "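Antiproliferative activity by CellTiter-Glo luminescence; MV4-11 (MLL-AF4) in IMDM/10% FBS, 4 days; MOLM13 (MLL-AF9) in RPMI1640/20% FBS, 12 days; OCI-AML3 (NPM1c) in RPMI1640/20% FBS, 5 days; HL-60 (MLL wild-type control) in IMDM/20% FBS, 4 days. Compounds 4-fold serial from 2 mM stock, 200-fold final dilution; 37 °C, 5% CO2.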"}, "[1]": {"test": "Liver microsome stability study", "format": "in vitro ADME", "details": "human liver microsomes 0.5 mg/mL, 1 μM compound, NADPH, 37° C.", "protocol": "Studies were carried out in liver microsomes (Corning, 0.5 mg/mL). Stock solutions were prepared at 10 mM in DMSO for the test compounds. Aliquots of the stock solutions were diluted to 0.5 mM with acetonitrile, and then further diluted upon the addition of liver microsomes/buffer to 1.5 μM. An aliquot of 30 μL of 1.5 μM solutions was mixed with 15 μL of 6 mM NADPH and the final concentration of NADPH was 2 mM, which had been pre-warmed to 37° C. Test compounds and Ketanserin final concentrations were 1 μM. The plates were kept in a 37° C. water bath for the duration of the experiment. At each time point (0, 5, 15, 30, 45 minutes), 135 μL of acetonitrile was added into corresponding wells. After the final time point was quenched by acetonitrile, the assay plates were shaken at the vibrator (IKA, MTS 2/4) for 10 min (600 rpm/min) and then centrifuged at 5,594 g for 15 min (Thermo Multifuge×3R). Aliquots of the supernatant were taken, diluted 1:1 into distilled water, and analyzed by LC-MS/MS. The peak area response ratio to internal standard (PARR) of the compounds at 5, 15, 30, 45 minutes was compared to the PARR at time 0 to determine the percent of test compound remaining at each time point. Half-lives were calculated using Excel software, fitting to a single-phase exponential decay equation."}, "MOLM13 cells": {"test_system": "MOLM13 cells", "test": "Cell proliferation assay (CellTiter-Glo), MOLM13", "format": "cell-based, human", "details": "MOLM13 (MLL-AF9), 12 days incubation; read-out: Cell antiproliferation assay MOLM13 IC50", "protocol": "(§1) The antiproliferative activity of test compounds was assessed in human leukemia cell lines. The cell line MV4-11, MOLM13 and OCI-AML3, which expresses the MLL fusion protein MLL-AF4, MLL-AF9 and carry the NPM1c gene mutation, respectively, were tested. HL-60 was used as a control cell line containing two MLL wildtype alleles in order to exclude compounds that display general cytotoxic effect. MV4-11 cells were cultured in IMDM supplemented with 10% FBS, MOLM13 and OCI-AML3 cells were cultured in RPMI1640 supplemented with 20% FBS, and HL-60 cells were cultured in IMDM supplemented with 20% FBS. Corresponding cells (MV4-11, MOLM13, OCI-AML3 or HL-60 cell line) were seeded in 100 uL medium per well in 96-well plate (white wall with clear bottom, tissue culture treated, Corning, Cat. No. CLS3903; Lot.No. 30419025). Plates were placed in the CO2 incubator overnight. Compounds solution (2 mM starting, 4-fold serial dilution) were prepared and added to the wells containing 100 μL of the culture medium with HPD300 according to the plate map and centrifuge at 1000 rpm for 1 minutes (200-fold dilution totally). MV4-11, MOLM13, OCI-AML3 and HL-60 cells were incubated with the compounds for 4, 12, 5 and 4 days, respectively, under 5% CO2 at 37° C., respectively. 100 μL of CellTiter-Glo reagent (Promega, Cat. No. G7573, Lot. No. 0000416710) was added to the assay plate by Multidrop Combi instrument, contents were mixed for 10 minutes on an orbital shaker to induce cell lysis. After incubation at room temperature for 10 mins, clear bottom with white back seal was pasted and luminescence with Envision was read."}, "Menin-MLL1": {"target": "T1, Menin-MLL1 (Homo sapiens, UniProt O00255)", "T1 construct": "Menin (2-610) isform2; purchased ChemPartner 2020111101", "T1 sequence (O00255 2-610)": "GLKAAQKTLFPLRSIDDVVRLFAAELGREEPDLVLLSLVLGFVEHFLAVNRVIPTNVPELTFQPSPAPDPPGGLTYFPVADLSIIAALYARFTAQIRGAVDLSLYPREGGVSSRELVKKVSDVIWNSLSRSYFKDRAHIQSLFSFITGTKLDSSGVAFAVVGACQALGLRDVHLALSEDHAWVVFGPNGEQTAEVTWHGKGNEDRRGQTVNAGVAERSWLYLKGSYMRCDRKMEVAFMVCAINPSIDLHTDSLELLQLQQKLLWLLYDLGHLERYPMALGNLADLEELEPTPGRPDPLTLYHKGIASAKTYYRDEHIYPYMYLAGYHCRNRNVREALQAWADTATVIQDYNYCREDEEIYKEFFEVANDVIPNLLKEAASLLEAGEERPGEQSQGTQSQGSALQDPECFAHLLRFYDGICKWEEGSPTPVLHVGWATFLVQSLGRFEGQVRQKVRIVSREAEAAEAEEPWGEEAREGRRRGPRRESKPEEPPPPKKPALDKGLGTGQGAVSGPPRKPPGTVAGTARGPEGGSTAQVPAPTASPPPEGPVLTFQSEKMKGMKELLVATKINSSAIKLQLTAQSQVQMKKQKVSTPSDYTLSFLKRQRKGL", "test": "Menin-MLL1 inhibition assay (fluorescence polarization, Menin protein + FAM-MLL peptide)", "format": "binding", "details": "Menin (2-610) isoform 2, FAM-labelled MLL peptide, mP readout; read-out: Biochemical assay Menin-MLL1 IC50"}, "OCI-AML3 cells": {"test_system": "OCI-AML3 cells", "test": "Cell proliferation assay (CellTiter-Glo), OCI-AML3", "format": "cell-based, human", "details": "OCI-AML3 (NPM1c mutation), 5 days incubation; read-out: Cell antiproliferation assay OCI-AML3 IC50", "protocol": "as §1"}, "HL-60 cells": {"test_system": "HL-60 cells", "test": "Cell proliferation assay (CellTiter-Glo), HL-60 control line", "format": "cell-based, human", "details": "4 days incubation", "protocol": "as §1"}, "hERG potassium channel": {"target": "T2, hERG potassium channel (Homo sapiens, UniProt Q12809)", "T2 construct": "expressed in transfected cells; host or cells: CHO-hERG cells", "T2 sequence (Q12809 whole entry)": "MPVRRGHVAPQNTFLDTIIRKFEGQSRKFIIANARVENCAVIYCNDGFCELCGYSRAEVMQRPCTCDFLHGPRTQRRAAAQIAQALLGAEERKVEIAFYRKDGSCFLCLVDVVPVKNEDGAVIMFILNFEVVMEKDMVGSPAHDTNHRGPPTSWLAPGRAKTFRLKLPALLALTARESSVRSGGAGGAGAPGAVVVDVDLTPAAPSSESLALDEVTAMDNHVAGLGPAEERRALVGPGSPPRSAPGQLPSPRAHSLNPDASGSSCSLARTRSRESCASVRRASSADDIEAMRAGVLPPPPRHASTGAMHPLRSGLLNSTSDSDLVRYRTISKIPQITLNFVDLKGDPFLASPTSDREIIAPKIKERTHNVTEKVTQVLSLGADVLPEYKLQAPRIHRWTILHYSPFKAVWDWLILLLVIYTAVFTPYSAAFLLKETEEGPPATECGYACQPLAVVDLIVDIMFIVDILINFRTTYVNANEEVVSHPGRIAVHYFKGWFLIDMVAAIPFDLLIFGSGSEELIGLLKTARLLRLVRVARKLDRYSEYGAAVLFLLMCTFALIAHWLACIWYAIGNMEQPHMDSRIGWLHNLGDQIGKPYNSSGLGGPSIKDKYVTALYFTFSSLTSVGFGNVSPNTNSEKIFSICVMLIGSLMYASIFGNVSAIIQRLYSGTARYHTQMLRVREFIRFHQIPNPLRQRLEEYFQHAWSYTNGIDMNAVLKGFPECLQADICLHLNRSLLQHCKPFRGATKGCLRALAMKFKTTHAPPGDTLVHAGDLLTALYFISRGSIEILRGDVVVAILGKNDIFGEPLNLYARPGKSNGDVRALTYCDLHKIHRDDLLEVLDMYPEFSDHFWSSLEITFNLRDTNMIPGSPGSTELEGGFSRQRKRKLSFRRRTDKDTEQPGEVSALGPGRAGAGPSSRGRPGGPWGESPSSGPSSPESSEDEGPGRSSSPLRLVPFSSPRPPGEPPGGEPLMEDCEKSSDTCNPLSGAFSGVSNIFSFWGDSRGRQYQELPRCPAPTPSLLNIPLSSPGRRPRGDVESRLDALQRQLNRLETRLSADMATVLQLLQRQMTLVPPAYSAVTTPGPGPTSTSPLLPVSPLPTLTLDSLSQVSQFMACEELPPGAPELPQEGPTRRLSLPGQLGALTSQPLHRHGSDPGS", "test": "hERG inhibition study (Qpatch, CHO-hERG cells)", "format": "cell-based", "details": "highest test concentration 40 μM", "protocol": "The inhibition effects of the test compounds on hERG were carried out in CHO-hERG cells (cell density: 21.5×10˜6/mL). 10 μL compound mother liquor was added to 20 μL DMSO solution, and then continuously diluted to 6 concentrations by 3-fold. The compound solution (4 uL) of six different concentrations were added to the extracellular solution (996 uL) and diluted to the final concentration to be tested (250-fold dilution totally). The highest test concentration was 40.00 μM, followed by […], 13.3, 4.4, 1.48, 0.49 and 0.16 μM. […] The high impedance sealing of single cell and the formation of whole cell model were all completed automatically by Qpatch instrument."}}}
{"compound": "CCN(C(=O)c1cc(F)ccc1Oc1cncnc1N1CC2(CCN(C[C@H]3CC[C@H](NS(=O)(=O)CC)CC3)CC2)C1)C(C)C", "note": "[SNDX-5613, reference compound]", "values": [{"measurement": "IC50", "setting": "MV-4-11 cells", "result": 8, "unit": "nM"}, {"measurement": "Human liver microsome T1/2", "setting": "[1]", "result": 12, "unit": "min"}, {"measurement": "IC50", "setting": "MOLM13 cells", "result": 21.6, "unit": "nM"}, {"measurement": "IC50", "setting": "Menin-MLL1", "result": 3.4, "unit": "nM"}, {"measurement": "IC50", "setting": "OCI-AML3 cells", "result": 74.7, "unit": "nM"}, {"measurement": "IC50", "setting": "HL-60 cells; HL-60 control line (MLL wildtype), read-out: Cell antiproliferation assay HL-60 IC50", "result": 7970, "unit": "nM"}, {"measurement": "HL-60 (Pct of inhibition at 10 μM)", "setting": "HL-60 cells; HL-60 control line, 10 μM", "result": 98.9, "unit": "%"}, {"measurement": "IC50", "setting": "hERG potassium channel", "result": 9600, "unit": "nM"}]}
